This is an account of results in patent US20240209022A1, “NOVEL PEPTIDE HAVING ANTI-INFLAMMATORY AND TISSUE REGENERATIVE ACTIONS” (KOREA RESEARCH INSTITUTE OF BIOSCIENCE AND BIOTECHNOLOGY, priority 2020, published 2024).

“Also recorded” adds a separate entry of the source.

The subject of assay [1] is animal model of metabolic disease accompanied by obesity/diabetes and chronic inflammation. Put plainly: High-fat diet obesity/diabetic metabolic disease model. In kind it is in vivo, C57BL/6J mice. The conditions noted are these: for fasting blood glucose: after fasting for 16 hours at the end of the test; for blood glucose in insulin resistance experiment (ITT): after insulin administration, time as stated in the value; for blood glucose in insulin resistance experiment (ITT) / body weight / AUC value of the insulin resistance experiment / LDL-C level in blood / TC (total cholesterol) level in blood / abdominal fat: vs PBS buffer group; for body weight: oral, 3 weeks on high-fat diet. As for the experimental part:
An animal model of metabolic disease accompanied by obesity/diabetes and chronic inflammation was induced by feeding a high-fat diet.
The experiment in the groups administered with Amuc_1409 or PEP001 to PEP005 was performed using 8-week-old SPF male C57BL/6J mice, and the metabolic disease accompanied by obesity/diabetes and chronic inflammation was induced by ad libitum feeding of a high-fat diet for 45 weeks or 8 weeks. Specifically, mice fed a high-fat diet for 45 weeks were fed a high-fat diet for an additional 3 weeks, and Amuc_1409 was dissolved in PBS buffer at a concentration of 2.4 μM and then orally administered to the mice by 150 μL per animal at the same time once a day until the end of the experiment, or mice fed a high-fat diet for 8 weeks were fed a high-fat diet for an additional 3 weeks, and PEP001, PEP002, PEP003, PEP004, or PEP005 was dissolved in PBS buffer at a concentration of 2.4 μM and then orally administered to the mice by 150 μL per animal at the same time once a day until the end of the experiment. To the control group, PBS buffer was orally administered in the same manner.
For the experiment in the groups administered with PEP006 to PEP013, 8-week-old male C57BL/6J mice were used, and the metabolic disease accompanied by obesity/diabetes and chronic inflammation was induced by ad libitum feeding of a high-fat diet for 32, 50, or 53 weeks. Mice fed a high-fat diet for 32 weeks were fed a high-fat diet for an additional 3 weeks, and a novel tetrapeptide PEP006 was dissolved in PBS buffer at a concentration of 0.15 μg/150 μL (PEP006) and then orally administered to the mice by 150 μL per animal at the same time until the end of the test, mice fed a high-fat diet for 50 weeks were fed a high-fat diet for an additional 3 weeks, and a novel tetrapeptide PEP007, PEP008, PEP009, or PEP010 was dissolved in PBS buffer at a concentration of 0.2 μg/150 μL (PEP007 to PEP013) and then orally administered to the mice by 150 μL per animal at the same time until the end of the test, and mice fed a high-fat diet for 53 weeks were fed a high-fat diet for an additional 3 weeks, and a novel […] PEP011, PEP012, or PEP013 was dissolved in PBS buffer at a concentration of 0.2 μg/150 μL (PEP007 to PEP013) and then orally administered to the mice by 150 μL per animal at the same time until the end of the test. To the control group, PBS buffer was orally administered in the same manner.
For all animals, general symptoms were observed immediately before administration at the start of administration, and the body weight was measured until the end of the test after group separation.
Insulin (Humalog, 1 unit/kg) was intraperitoneally injected into mice fasted for 4 hours at 2 weeks after the start of test substance administration (2 weeks in groups administered with Amuc_1409 and PEP001 to PEP005 and 3 weeks in groups administered with PEP006 to PEP013), and then blood glucose at 30 minutes, 60 minutes, 90 minutes, and 120 minutes was measured from a small amount of blood obtained through a wound at the tip of the tail using ACCU-CHECK (Roche), thereby performing an insulin tolerance test (ITT).
At the end of the test, fasting blood glucose was measured from a small amount of blood obtained through a wound at the tip of the tail of the mouse fasted for 16 hours using ACCU-CHECK, and blood was collected from the orbital venous plexus using a heparin-treated capillary tube. The collected blood was immediately centrifuged at 10,000 rpm (4° C.) for 10 minutes to separate plasma, and then subjected to analysis of total cholesterol (TC) and low-density lipoprotein cholesterol (LDL-C), which are blood abnormal lipid indicators, using an automated blood biochemical analyzer.

In assay [2] the test system is collagen induced arthritis (CIA) model. The assay can be described thus: Collagen induced arthritis (CIA) rheumatoid arthritis model. In kind it is in vivo, DBA/1J mice. Particulars: vs PBS buffer group; for thickness of the ankle joint: at the end of the experiment.
The subject of assay [3] is MIA-induced degenerative arthritis model. Put plainly: MIA-induced degenerative arthritis model. In kind it is in vivo, C57BL/6J mice. The conditions noted are these: vs PBS buffer group; for diameter of the knee joint: day 1 after MIA injection, i.p. As to the method: As a degenerative arthritis model, 9-week-old specific pathogen free (SPF) male C57BL/6J mice were anesthetized, the area around the right knee joint was cleanly shaved, and 10 μL of MIA solution (monosodium iodoacetate 0.5 mg in 10 μL 0.9% sterile saline) was injected into the knee joint cavity to induce arthritis. From 3 days before MIA (monosodium iodoacetate) solution injection, Amuc_1409 or PEP001, PEP002, PEP003, PEP004, PEP005, PEP006, PEP007, PEP008, PEP009, PEP010, PEP011, PEP012, or PEP013 was dissolved in PBS buffer at a concentration of 6.7 μM and then injected into the mouse peritoneal cavity at 150 μL per animal once a day at the same time. On day 3 (0 days) after administration of Amuc_1409 or PEP001 to PEP013, an additional intraperitoneal injection was given 1 hour before MIA injection, the drug was intraperitoneally injected once a day at the same time after MIA injection, and the experiment was terminated on the 30th day after MIA injection. In the control group, the same volume of PBS buffer was injected intraperitoneally. After MIA injection, the diameter of the knee joint was measured using a caliper for 7 days at 2-day intervals (0, 1, 3, 5, and 7 days) to evaluate swelling caused by inflammatory changes of the joint. […] At this time, the weight bearing on the limb was lower as arthritis was more severe. The weight-bearing weight (g) of each of both paws was measured, and in this experiment, the value was expressed as the ratio (%) of the right hind limb with arthritis to the total hind limb. Weight bearing ratio (%)=weight-bearing weight of right hind limb with arthritis (g)/weight-bearing weight of both hind limbs (g)×100 After termination of the experiment, the test animals were sacrificed, then the knee joint tissue of the mouse was fixed with 10% neutral buffered formalin, and the bone was decalcified with a 0.5 M EDTA solution. Next, the joint tissue was embedded in paraffin to prepare a 5 μm joint section, and Safranin O staining was performed to histopathologically analyze the degree of damage to the cartilage tissue. At this time, the degree of damage to the cartilage tissue was evaluated by examining the degree of safranin O staining of the sections and scored according to OARSI (Osteoarthritis Research Society International grade) guidelines. The scoring criteria according to the OARSI guidelines are as follows (Table 1). [table]

Where [4] appears, read: 2 weeks and 4 weeks after MIA injection.
[5] abbreviates: days 3, 5, and 7 after MIA injection.

On to GAY [PEP005], for which, in assay [1], the fasting blood glucose entry is listed as “decreased”, the “blood glucose in insulin resistance experiment (ITT)” value (from here on “blood glucose … (ITT)”) is on record as “decreased at 30 minutes after insulin administration”, the body weight result was “significantly decreased” and the “AUC value of the insulin resistance experiment” value (“AUC value” below) is recorded as “decreased”. In assay [1], the “LDL-C level in blood” value is on record as “significantly decreased”, the “TC (total cholesterol) level in blood” value is “tended to decrease” and the abdominal fat result is recorded as “decreased”. For the same substance, in assay [2], the “thickness of the ankle joint” value was “significantly decreased”, the “arthritis index (clinical score by date)” value is “significantly decreased from day 28 after the first CII injection to the experiment end day” and the “swelling of the hind paws by macrophotography” value (“swelling of the hind paws” for short) is recorded as “reduced overall”. Further, the weight bearing ratio result in assay [3] (setting [4]) was “significantly increased”. For the same substance, in assay [3], the “diameter of the knee joint” value is recorded as “tended to decrease”. Besides, in assay [3] (setting [5]), the “thickness of the knee joint” value is recorded as “significantly decreased”.
On to AVS (AVSSIKGAY) [PEP004], for which, in assay [1], the fasting blood glucose entry was “decreased”, the “blood glucose … (ITT)” value is listed as “decreased at 30 minutes after insulin administration”, the body weight result was “significantly decreased” and the “AUC value” value is recorded as “decreased”. Besides, in assay [1], the “LDL-C level in blood” value is “significantly decreased”, the “TC (total cholesterol) level in blood” value is listed as “tended to decrease” and the abdominal fat entry is “decreased”. The “maintenance of the decreased blood glucose in insulin resistance experiment” value in assay [1] (until 120 minutes after insulin) is “significantly maintained until 120 minutes”. Further, in assay [2], the “thickness of the ankle joint” value is “significantly decreased”, the “arthritis index (clinical score by date)” value is given as “significantly decreased from day 32 after the first CII injection to the experiment end day” and the “swelling of the hind paws” value is “reduced overall”. The weight bearing ratio entry in assay [3] (setting [4]) was “significantly increased”. Further, the “diameter of the knee joint” value in assay [3] was “significantly decreased”. Moreover, in assay [3] (setting [5]), the “thickness of the knee joint” value is reported as “significantly decreased”.
For the substance AGAY (PEP006), in assay [1], the “blood glucose … (ITT)” value is “decreased to a significant level from 30 minutes to 120 minutes after insulin administration” and the “AUC value” value is “decreased close to a significant level”. In addition, in assay [2], the “thickness of the ankle joint” value is “significantly decreased”, the “arthritis index (clinical score by date)” value is on record as “significantly decreased on day 28 after the first injection of CII; also recorded: tended to decrease from day 30 to the experiment end day” and the “swelling of the hind paws” value was “remarkably improved”. Besides, the weight bearing ratio result in assay [3] (2 weeks after MIA injection) is given as “significantly increased”. Moreover, the weight bearing ratio result in assay [3] (4 weeks after MIA injection) is listed as “significantly increased”.
In the case of VGAY (PEP010), the “blood glucose … (ITT)” value in assay [1] is given as “decreased to a significant level from 30 minutes to 120 minutes after insulin administration”. In assay [1], the “AUC value” value is listed as “decreased close to a significant level”. Also, the “thickness of the ankle joint” value in assay [2] is reported as “significantly decreased”. Besides, the “arthritis index (clinical score by date)” value in assay [2] was “significantly decreased from day 30 after the first CII injection to the experiment end day”. Besides, the “swelling of the hind paws” value in assay [2] is listed as “remarkably improved”. Further, the weight bearing ratio result in assay [3] (2 weeks after MIA injection) and in assay [3] (4 weeks after MIA injection) was “significantly increased” in each case. The “diameter of the knee joint” value in assay [3] is “tended to decrease”. Besides, the “thickness of the knee joint” value in assay [3] (day 3 after MIA injection), in assay [3] (day 5 after MIA injection) and in assay [3] (day 7 after MIA injection) was “significantly decreased” each time.
AVSSIKGAY (PEP001): in assay [1], the “blood glucose … (ITT)” value was “decreased at 30 minutes after insulin administration”, the body weight entry is given as “decreased from the initial body weight”, the “AUC value” value was “decreased” and the “LDL-C level in blood” value is reported as “significantly decreased”. For the same substance, in assay [1], the “TC (total cholesterol) level in blood” value is on record as “decreased” and the abdominal fat result is “decreased”. In addition, in assay [2], the “thickness of the ankle joint” value was “significantly decreased”, the “arthritis index (clinical score by date)” value is “significantly decreased from day 30 after the first CII injection to the experiment end day” and the “swelling of the hind paws” value was “reduced overall”. The weight bearing ratio entry in assay [3] (setting [4]) was “significantly increased”. The “diameter of the knee joint” value in assay [3] was “tended to decrease”. Moreover, the “thickness of the knee joint” value in assay [3] (setting [5]) was “significantly decreased”.
As to RGAY (PEP007), the “blood glucose … (ITT)” value in assay [1] is “decreased to a significant level from 30 minutes to 120 minutes after insulin administration”. In addition, the “AUC value” value in assay [1] was “decreased close to a significant level”. For the same substance, the “thickness of the ankle joint” value in assay [2] was “significantly decreased”. Moreover, in assay [2], the “arthritis index (clinical score by date)” value is listed as “significantly decreased from day 28 after the first CII injection to the experiment end day”. Further, in assay [2], the “swelling of the hind paws” value was “remarkably improved”. Moreover, the weight bearing ratio result in assay [3] (2 weeks after MIA injection) and in assay [3] (4 weeks after MIA injection) was “significantly increased” throughout. In addition, the “diameter of the knee joint” value in assay [3] is “significantly decreased”. Besides, the figures for the “thickness of the knee joint” value in assay [3] (day 3 after MIA injection), in assay [3] (day 5 after MIA injection) and in assay [3] (day 7 after MIA injection) were “significantly decreased”, “tended to decrease” and “significantly decreased”, respectively.
